The record followed here is ChEMBL document CHEMBL1201862, “PubChem BioAssay data set” (2004).

The source made the active and inactive calls.

Type in all cases: functional
The target in assay [1] is T1, G-protein coupled receptor 35 (Homo sapiens, UniProt Q9HC97). The assay is described as follows: SAR analysis of Agonists of the GPR35 Receptor using an Image-Based Assay - Set 4. [Related pubchem assays (depositor defined):AID2013, AID2026].
Assay [2] deals with T2, Cannabinoid receptor 1 (Homo sapiens, UniProt P21554). The assay is described as follows: SAR analysis of agonists of the Cannabinoid Receptor 1 using an Image-Based Assay - Set 4. [Related pubchem assays (depositor defined):AID2013, AID2026].
The target of assay [3] is T1, G-protein coupled receptor 35. In words: SAR analysis of Antagonists of the GPR35 Receptor using an Image-Based Assay - Set 6. [Related pubchem assays (depositor defined):AID2013, AID2026].
For assay [4], the target named is T2, Cannabinoid receptor 1. In words: SAR analysis of antagonists of the Cannabinoid Receptor 1 using an Image-Based Assay - Set 4. [Related pubchem assays (depositor defined):AID2013, AID2026].
The target in assay [5] is G-protein coupled receptor 55 (Homo sapiens, UniProt Q9Y2T6). In words: SAR Analysis of Selective Antagonists of GPR55 using an Image-Based Assay - Set 4. [Related pubchem assays (depositor defined):AID2013, AID2026].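 Further: antagonism of response to 5 µM lysophosphatidylinositol agonist.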
For assay [6], the target named is T3, Cannabinoid receptor 2 (Homo sapiens, UniProt P34972). In words: SAR analysis of antagonists of the Cannabinoid Receptor 2 using an Image-Based Assay - Set 3. [Related pubchem assays (depositor defined):AID2013, AID2026].
The target of assay [7] is T3, Cannabinoid receptor 2. In words: SAR analysis of agonists of the Cannabinoid Receptor 2 using an Image-Based Assay - Set 3. [Related pubchem assays (depositor defined):AID2013, AID2026].
For assay [8], the target named is Sphingosine 1-phosphate receptor 5 (Homo sapiens, UniProt Q9H228). In words: Late stage counterscreen assay for S1P4 antagonists: Fluorescence dose response cell-based screening assay for antagonists of the Sphingosine 1-Phosphate Receptor 5 (S1P5). [Related pubchem assays (depositor defined):AID1510, AID1524, AID1692, AID1853, AID2332, AID489009, AID489017]. A general note: A counterscreen serves to expose hits that act by an unwanted route or on another target.

For assay [9], the target named is Sphingosine 1-phosphate receptor 3 (Homo sapiens, UniProt Q99500). In words: Late stage counterscreen assay for S1P4 antagonists: Fluorescence dose response cell-based screening assay for antagonists of the Sphingosine 1-Phosphate Receptor 3 (S1P3). [Related pubchem assays (depositor defined):AID1510, AID1524, AID1692, AID1853, AID2332, AID489009, AID489017].
In assay [10] the target is Sphingosine 1-phosphate receptor 1 (Homo sapiens, UniProt P21453). In words: Late stage counterscreen assay for S1P4 antagonists: Fluorescence dose response cell-based screening assay for antagonists of the Sphingosine 1-Phosphate Receptor 1 (S1P1). [Related pubchem assays (depositor defined):AID1510, AID1524, AID1692, AID1853, AID2332, AID489009, AID489017].
In assay [11] the target is Sphingosine 1-phosphate receptor 2 (Homo sapiens, UniProt O95136). In words: Late stage counterscreen assay for S1P4 antagonists: Fluorescence dose response cell-based screening assay for antagonists of the Sphingosine 1-Phosphate Receptor 2 (S1P2). [Related pubchem assays (depositor defined):AID1510, AID1524, AID1692, AID1853, AID2332, AID489009, AID489017].
The target of the next assay is SUMO E1/E2 (Homo sapiens, UniProt P63279+Q9UBE0+Q9UBT2). In words: SAR analysis of SUMOylation using HTRF in an in-Vitro dose response assay. [Related pubchem assays (depositor defined):AID2006, AID2011, AID2018, AID2069, AID2658]. On the technique in general: TR-FRET usually uses a lanthanide donor and a delayed reading to cut background.
Chain of SUMO E1/E2 (Q9UBE0 whole entry): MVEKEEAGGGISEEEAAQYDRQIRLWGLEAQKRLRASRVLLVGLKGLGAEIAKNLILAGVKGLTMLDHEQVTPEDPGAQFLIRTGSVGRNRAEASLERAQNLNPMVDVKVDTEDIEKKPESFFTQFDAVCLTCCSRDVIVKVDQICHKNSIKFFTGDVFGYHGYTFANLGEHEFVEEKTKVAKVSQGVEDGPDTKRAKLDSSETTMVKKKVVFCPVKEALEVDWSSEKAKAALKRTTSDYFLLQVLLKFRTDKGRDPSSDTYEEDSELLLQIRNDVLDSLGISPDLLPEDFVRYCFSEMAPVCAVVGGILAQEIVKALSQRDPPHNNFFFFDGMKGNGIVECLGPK
Chain of SUMO E1/E2 (Q9UBT2 whole entry): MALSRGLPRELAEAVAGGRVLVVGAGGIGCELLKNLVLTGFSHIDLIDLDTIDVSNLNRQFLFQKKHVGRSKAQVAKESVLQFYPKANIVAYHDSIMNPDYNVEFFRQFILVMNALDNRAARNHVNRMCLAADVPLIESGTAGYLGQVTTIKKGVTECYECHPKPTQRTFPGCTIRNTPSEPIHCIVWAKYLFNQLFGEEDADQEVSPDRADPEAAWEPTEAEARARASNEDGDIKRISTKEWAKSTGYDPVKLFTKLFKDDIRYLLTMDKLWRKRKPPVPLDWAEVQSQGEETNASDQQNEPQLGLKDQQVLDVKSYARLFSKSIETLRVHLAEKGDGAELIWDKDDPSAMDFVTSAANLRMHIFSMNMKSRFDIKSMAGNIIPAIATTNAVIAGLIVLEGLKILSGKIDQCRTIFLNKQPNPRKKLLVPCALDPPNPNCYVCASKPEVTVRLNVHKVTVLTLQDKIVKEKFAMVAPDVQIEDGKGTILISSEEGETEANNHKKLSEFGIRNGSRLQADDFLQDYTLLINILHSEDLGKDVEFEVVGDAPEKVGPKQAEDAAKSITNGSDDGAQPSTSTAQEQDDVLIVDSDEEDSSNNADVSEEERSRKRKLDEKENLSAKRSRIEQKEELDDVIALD
Chain of SUMO E1/E2 (P63279 whole entry): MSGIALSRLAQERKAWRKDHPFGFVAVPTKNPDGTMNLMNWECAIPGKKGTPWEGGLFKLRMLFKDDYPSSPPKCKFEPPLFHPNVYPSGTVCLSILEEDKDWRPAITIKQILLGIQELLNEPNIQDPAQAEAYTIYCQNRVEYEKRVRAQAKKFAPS

T3 sequence (P34972 whole entry): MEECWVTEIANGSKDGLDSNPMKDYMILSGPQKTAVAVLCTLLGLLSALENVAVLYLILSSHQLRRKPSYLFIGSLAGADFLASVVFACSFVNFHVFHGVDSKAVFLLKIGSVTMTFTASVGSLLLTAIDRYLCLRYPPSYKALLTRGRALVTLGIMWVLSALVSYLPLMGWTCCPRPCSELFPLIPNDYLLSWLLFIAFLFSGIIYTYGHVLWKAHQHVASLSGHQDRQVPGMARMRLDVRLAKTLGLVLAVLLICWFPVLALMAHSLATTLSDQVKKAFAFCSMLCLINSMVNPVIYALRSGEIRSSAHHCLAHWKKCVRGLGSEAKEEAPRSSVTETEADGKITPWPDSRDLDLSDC
T1 sequence (Q9HC97 whole entry): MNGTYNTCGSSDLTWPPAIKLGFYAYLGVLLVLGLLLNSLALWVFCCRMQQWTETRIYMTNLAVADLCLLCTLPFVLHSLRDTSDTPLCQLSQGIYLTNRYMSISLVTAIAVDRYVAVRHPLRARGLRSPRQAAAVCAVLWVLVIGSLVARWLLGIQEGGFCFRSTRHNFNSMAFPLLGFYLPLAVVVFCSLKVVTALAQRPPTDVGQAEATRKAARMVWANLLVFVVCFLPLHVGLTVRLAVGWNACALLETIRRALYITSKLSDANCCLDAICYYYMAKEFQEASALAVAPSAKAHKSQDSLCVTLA
T2 sequence (P21554 whole entry): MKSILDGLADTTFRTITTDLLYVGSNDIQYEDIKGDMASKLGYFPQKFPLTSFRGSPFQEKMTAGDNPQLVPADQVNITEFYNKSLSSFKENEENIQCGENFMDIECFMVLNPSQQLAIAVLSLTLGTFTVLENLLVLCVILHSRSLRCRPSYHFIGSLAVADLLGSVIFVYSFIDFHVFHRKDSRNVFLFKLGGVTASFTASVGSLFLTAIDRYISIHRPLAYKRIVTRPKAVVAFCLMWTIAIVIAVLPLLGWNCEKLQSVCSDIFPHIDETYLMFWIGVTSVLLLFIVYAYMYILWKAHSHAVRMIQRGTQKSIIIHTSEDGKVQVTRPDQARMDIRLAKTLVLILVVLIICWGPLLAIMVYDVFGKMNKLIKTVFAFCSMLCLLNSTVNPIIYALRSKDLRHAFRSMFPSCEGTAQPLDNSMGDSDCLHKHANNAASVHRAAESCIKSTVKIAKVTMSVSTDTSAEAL
Chain of Sphingosine 1-phosphate receptor 2 (O95136 whole entry): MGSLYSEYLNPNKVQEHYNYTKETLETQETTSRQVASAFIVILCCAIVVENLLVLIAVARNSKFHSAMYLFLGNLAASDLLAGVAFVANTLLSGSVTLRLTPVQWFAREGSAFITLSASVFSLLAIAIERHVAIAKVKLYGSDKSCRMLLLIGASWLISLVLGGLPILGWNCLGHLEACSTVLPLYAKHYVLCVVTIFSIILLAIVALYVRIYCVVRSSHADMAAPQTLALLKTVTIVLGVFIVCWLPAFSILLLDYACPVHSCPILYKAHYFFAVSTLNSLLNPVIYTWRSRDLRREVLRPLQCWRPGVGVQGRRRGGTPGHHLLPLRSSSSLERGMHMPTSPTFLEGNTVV
Chain of Sphingosine 1-phosphate receptor 3 (Q99500 whole entry): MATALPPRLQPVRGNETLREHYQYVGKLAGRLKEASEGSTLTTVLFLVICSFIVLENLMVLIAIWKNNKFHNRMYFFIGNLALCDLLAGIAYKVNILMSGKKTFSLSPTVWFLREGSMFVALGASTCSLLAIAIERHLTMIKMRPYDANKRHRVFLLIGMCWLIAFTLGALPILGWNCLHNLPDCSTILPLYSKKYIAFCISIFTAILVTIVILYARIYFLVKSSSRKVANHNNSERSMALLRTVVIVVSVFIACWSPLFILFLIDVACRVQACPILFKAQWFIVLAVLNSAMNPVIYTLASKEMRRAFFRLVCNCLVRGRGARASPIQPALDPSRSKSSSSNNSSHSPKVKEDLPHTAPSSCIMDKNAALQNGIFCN
Chain of Sphingosine 1-phosphate receptor 1 (P21453 whole entry): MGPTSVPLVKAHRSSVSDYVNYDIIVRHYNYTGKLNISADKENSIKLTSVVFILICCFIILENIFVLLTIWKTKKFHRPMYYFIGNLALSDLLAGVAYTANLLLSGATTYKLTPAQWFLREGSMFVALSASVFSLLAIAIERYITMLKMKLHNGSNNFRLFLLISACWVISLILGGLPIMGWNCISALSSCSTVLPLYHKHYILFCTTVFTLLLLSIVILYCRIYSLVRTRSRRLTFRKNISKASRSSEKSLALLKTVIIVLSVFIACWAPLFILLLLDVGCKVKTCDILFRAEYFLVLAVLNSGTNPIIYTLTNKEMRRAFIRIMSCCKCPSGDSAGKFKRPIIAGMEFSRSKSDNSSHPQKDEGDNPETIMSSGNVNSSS
Chain of G-protein coupled receptor 55 (Q9Y2T6 whole entry): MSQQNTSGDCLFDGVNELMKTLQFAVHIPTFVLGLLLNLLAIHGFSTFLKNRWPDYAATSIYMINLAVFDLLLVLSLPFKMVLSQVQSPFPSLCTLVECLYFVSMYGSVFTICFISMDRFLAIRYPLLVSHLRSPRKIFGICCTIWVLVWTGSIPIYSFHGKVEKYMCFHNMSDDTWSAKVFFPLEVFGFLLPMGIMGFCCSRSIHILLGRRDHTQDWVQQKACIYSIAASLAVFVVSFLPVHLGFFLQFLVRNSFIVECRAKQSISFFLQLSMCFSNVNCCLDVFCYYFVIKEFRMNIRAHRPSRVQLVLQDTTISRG
Chain of Sphingosine 1-phosphate receptor 5 (Q9H228 whole entry): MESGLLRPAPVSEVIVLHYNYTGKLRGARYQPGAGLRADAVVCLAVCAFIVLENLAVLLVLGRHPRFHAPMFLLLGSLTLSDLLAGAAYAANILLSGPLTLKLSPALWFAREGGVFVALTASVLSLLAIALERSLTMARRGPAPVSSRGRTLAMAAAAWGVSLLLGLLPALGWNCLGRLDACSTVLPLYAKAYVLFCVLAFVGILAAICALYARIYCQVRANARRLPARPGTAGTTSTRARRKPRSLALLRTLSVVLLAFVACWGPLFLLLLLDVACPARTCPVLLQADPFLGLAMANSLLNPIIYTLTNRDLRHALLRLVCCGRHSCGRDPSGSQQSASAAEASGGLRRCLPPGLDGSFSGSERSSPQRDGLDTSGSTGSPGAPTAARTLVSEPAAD

As to `Cc1cc(C)nc(NS(=O)(=O)c2ccc(NC(=O)c3cc(-c4ccccc4)nc4ccccc34)cc2)n1`, the EC50 (in assay [1]; on Cannabinoid receptor 1 [2]; on Cannabinoid receptor 2 [7]) was > 32 µM (inactive) each time. In addition, the IC50 – broadly, the concentration needed to halve the response being measured – in [3] is > 32 µM (inactive); at Cannabinoid receptor 1 [4] it was 4.92 µM (active); in [5], 13.7 µM (inactive); on Cannabinoid receptor 2 [6], > 32 µM (inactive).
For `Cc1ccc2ccccc2c1NC(=O)c1ccc(-c2cc(Cl)ccc2Cl)o1`, the IC50 in [8], in [9], in assay [10] and in [11] was > 25 µM (inactive) in each case.
In the case of `O=C1c2oc3ccccc3c(=O)c2C(c2ccc(O)cc2)N1c1nccs1` (configuration not stated), the IC50 at SUMO E1/E2 was 28.7 µM (active).
